Measured values taken from ChEMBL document CHEMBL4699668, “Discovery and Structure-Activity Relationships of Novel Template, Truncated 1'-Homologated Adenosine Derivatives as Pure Dual PPARγ/δ Modulators” (J Med Chem, 2020).

Assays:
[1] = target: T1, Peroxisome proliferator-activated receptor gamma (Homo sapiens, UniProt P37231)
T1 sequence (P37231 whole entry): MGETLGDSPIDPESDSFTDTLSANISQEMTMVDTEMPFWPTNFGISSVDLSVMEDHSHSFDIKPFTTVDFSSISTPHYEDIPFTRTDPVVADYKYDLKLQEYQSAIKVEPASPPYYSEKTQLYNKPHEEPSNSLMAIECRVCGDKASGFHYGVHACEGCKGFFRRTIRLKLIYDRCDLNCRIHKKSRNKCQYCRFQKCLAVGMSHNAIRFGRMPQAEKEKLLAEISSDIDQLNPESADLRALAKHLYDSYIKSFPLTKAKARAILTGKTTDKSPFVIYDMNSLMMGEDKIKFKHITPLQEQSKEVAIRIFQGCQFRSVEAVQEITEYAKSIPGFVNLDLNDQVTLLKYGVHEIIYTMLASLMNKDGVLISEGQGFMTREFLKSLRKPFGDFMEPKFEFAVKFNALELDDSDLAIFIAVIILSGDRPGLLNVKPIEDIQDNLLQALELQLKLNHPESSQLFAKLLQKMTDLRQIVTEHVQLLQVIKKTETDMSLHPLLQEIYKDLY
Description: Binding affinity to PPAR-gamma (unknown origin) by TR-FRET assay

[2] = target: T2, Peroxisome proliferator-activated receptor delta (Homo sapiens, UniProt Q03181)
T2 sequence (Q03181 whole entry): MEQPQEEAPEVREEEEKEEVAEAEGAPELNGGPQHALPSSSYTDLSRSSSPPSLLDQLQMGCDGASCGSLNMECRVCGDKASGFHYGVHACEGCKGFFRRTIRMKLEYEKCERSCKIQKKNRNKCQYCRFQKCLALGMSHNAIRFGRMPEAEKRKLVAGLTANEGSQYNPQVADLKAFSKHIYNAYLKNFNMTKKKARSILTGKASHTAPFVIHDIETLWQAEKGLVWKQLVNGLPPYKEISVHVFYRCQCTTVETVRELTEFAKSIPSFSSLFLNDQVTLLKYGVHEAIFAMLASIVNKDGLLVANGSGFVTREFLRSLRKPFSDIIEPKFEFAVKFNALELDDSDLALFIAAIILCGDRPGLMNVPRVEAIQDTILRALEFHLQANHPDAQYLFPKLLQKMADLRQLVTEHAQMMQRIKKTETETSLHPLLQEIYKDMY
Description: Binding affinity to PPAR-delta (unknown origin) by TR-FRET assay

Row | Compound | Ki [1] [µM] | Ki [2] [µM]
1 | O[C@@H]1[C@H](O)CS[C@H]1Cn1cnc2c(NCc3cccc(F)c3)nc(Cl)nc21 | 3.89 | 1.91
2 | O[C@@H]1[C@H](O)CS[C@H]1Cn1cnc2c(NCc3cccc(Br)c3)nc(Cl)nc21 | 4.07 | 0.592
3 | O[C@@H]1[C@H](O)CS[C@H]1n1cnc2c(NCc3cccc(I)c3)nc(Cl)nc21 | – | 0.0106
4 | O[C@@H]1[C@H](O)CO[C@H]1Cn1cnc2c(NCc3cccc(Cl)c3)nc(Cl)nc21 | 7.66 | 0.504

More lines, main results first:

Row | Ki [1] [µM] | Compound | Ki [2] [µM]
5 | 7.3 | CC#Cc1nc(NCc2cccc(I)c2)c2ncn(C[C@@H]3SC[C@@H](O)[C@H]3O)c2n1 | –
6 | 9.55 | O[C@@H]1[C@H](O)CO[C@H]1Cn1cnc2c(NCc3cccc(Br)c3)nc(Cl)nc21 | 1.43
7 | 7.66 | CC#Cc1nc(NCc2cccc(F)c2)c2ncn(C[C@@H]3SC[C@@H](O)[C@H]3O)c2n1 | –
8 | 7.04 | CC#Cc1nc(NCc2cccc(Br)c2)c2ncn(C[C@@H]3SC[C@@H](O)[C@H]3O)c2n1 | –
